Among the data in patent publication US11912682B2, “Isoindolinone compounds” (Monte Rosa Therapeutics, Inc., priority 2021, dated 2024) are IC50 and DC50 values, retold here.

Read-outs that look alike come from different tables or passages of the source.

Assay [1] concerns the target Full length wild-type cereblon CRBN (Homo sapiens (Human), UniProt Q96SW2). The experiment in a line: fluorescence polarization (FP) assay, cereblon binding. The source says: Compound activity was monitored in a fluorescence polarization (FP) homogeneous assay using 1-[5-({2-[2-(2-{[2-(2,6-dioxopiperidin-3-yl)-1,3-dioxo-2,3-dihydro-1H-isoindol-4-yl]oxy}acetamido)ethoxy]ethyl}carbamoyl)pentyl]-3,3-dimethyl-2-[(1E,3E)-5-[(2E)-1,3,3-trimethyl-5-sulfo-2,3-dihydro-1H-indol-2-ylidene]penta-1,3-dien-1-yl]-3H-indol-1-ium-5-sulfonate as a fluorescent probe. Unless otherwise stated, all reagents were purchased from Sigma Aldrich. […] Full length wild-type cereblon CRBN (80.0 nM, 10 μL) was incubated in assay buffer containing 20 mM HEPES (pH 8.0), […], 0.5 mM TCEP and 0.05% Tween 20 in the presence or absence of compound (300 nL). Inhibitors were stored as 10 mM DMSO stocks in an inert environment (low humidity, dark, low oxygen, room temperature) using the Storage Pod System. […] Following incubation at room temperature for 30 min, the assay was initiated by dispensing the probe to a final concentration of 5 nM (2.5 nL of a 20 μM stock) using the Echo ESXX. […] The FP signal was subsequently normalized to the no-compound control (i.e., DMSO). Analysis and IC50 values were derived using Dotmatics (Dotmatics UK) software.
A general note: Fluorescence polarisation rises when a labelled molecule tumbles more slowly, as on binding a larger partner.

The target in assay [2] is GSPT1 (Homo sapiens (Human), UniProt P15170+Q96SW2). The experiment in a line: immunofluorescence assay for GSPT1 degradation in CAL-51 cells (Example 4). It counts as cell-based. How it is done: The representative compounds were tested in an immunofluorescence assay for their activity to bind to degrade GSPT1. CAL-51 cells were purchased from DSMZ (cat. Number ACC302), sub-cultured in 90% Dulbecco's MEM (4.5 g/L glucose, Gibco 11965) +10% heat inactivated FBS (BioConcept, 2-01F136I) and incubated at 37° C., 5% CO2. For the assay, imaging microtiterplate Cell Carrier 96 Ultra (Perkin Elmer 6055302) were pre-coated with Fibronectin (Sigma F085, 30 μl at 0.2 μg/ml) in PBS (100 μl, Gibco 14190) for 45 min at room temperature, rinsed with PBS and CAL-51 cells (30 K cells/well) were plated and let to adhere overnight. Cells were treated with compounds typically using a serial dilution ranging from 30 μM to 0.1 nM for 6 hours. Compounds were stored at 10 mM DMSO stocks. Vehicle (DMSO), positive (CC-885, 10 μM) and rescue controls (positive control plus 0.2 μM bortezomib) were also included atthis stage. Cells were subsequently rinsed with PBS and fixed in 10% Formalin solution (50 μl, Sigma HT5011)) for 20 mins at room temperature. Following three consecutive PBS washes (100 μl), cells were permeabilized in 0.1% Triton X-100 in PBS (Sigma 93443, 50 μl) for 15 mins at room temperature. Following three further PBS washes, 50 μl blocking buffer (1% BSA, Sigma A4503, in PBS) was added for 45 min for signal-to-noise reduction.
Primary antibody (human GSPT1, Sigma HPA052488) was diluted in blocking buffer (dil.1/300, 35 μl/well) and incubated with the cells overnight at 4° C. After three PBS washes, Alexa-fluor 488 coupled secondary antibodies (Invitrogen, A32731, dil.1/1000), Alexa-fluor 647-Phalloidin (Invitrogen, A22287, dil.1/200) and DAPI (Thermo, #62248, dil.1/1000) were diluted in blocking buffer and incubated with the samples for 2 hours at room temperature. After three final PBS washes, samples were conserved in 100 μl PBS in the dark, until measurement. Image acquisition was performed on the Operetta High-Content Imager (Perkin-Elmer). Fluorescence intensity of Alexa-Fluor 488 (GSPT1), Alexa-Fluor 647 (Actin) and DAPI (Nucleus) were measured. For the determination of GSPT1 DC50 values, a custom algorithm implemented in the PerkinElmer image analysis software Harmony-Acapella® was developed. After user-defined setting of adjustment parameters, the analysis was run identically without human intervention for all image fields. DAPI staining of the nuclei was used to determine the location of cells using standard nuclei detection modules. Segmentation artifacts were removed by threshold-based filters for area, roundness and intensity. The outline of the cells was determined analogously from the sum of the normalized, smoothed DAPI and Actin channel, starting from each nucleus. The Alexa-Fluor 488 (GSPT1) signal intensity in each cell was finally measured, in order to obtain a Mean intensity per cell. GSPT1 degradation (DC50) was calculated after normalization to controls and data import in CDD vault Database, using non-linear regression.

Where [3] appears, read: 6 hours, read-out: Activity for GSPT1 degradation, Code (DC50).
Where [4] appears, read: GSPT1 degradation, read-out: DC50 value.

GSPT1, sequence (P15170 whole entry): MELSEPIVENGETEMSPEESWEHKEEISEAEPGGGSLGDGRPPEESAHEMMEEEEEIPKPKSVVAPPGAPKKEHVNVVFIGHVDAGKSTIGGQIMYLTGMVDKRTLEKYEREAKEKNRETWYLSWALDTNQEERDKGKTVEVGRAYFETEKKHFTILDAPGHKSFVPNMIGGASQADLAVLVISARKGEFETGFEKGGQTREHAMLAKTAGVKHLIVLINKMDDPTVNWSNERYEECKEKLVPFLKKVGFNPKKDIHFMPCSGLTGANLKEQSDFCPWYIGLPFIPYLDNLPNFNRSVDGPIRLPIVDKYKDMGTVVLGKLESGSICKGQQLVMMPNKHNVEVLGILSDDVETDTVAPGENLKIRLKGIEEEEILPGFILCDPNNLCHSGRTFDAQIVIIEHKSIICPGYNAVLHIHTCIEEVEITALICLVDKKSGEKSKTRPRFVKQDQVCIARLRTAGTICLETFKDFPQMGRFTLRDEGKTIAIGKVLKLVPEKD
GSPT1, sequence (Q96SW2 whole entry): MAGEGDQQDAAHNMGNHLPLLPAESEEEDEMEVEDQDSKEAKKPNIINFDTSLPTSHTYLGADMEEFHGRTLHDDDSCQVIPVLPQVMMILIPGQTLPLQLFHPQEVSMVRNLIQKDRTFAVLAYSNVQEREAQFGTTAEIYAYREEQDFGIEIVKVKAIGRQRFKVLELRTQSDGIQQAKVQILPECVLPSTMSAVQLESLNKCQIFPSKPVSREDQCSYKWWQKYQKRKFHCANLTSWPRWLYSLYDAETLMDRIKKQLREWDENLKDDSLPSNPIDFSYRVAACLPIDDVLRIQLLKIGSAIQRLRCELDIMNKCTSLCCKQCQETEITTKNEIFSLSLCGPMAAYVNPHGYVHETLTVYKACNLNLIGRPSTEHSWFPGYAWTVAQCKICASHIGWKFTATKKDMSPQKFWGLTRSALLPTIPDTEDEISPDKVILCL
GSPT1, sequence (Q16531 2-1140 partner): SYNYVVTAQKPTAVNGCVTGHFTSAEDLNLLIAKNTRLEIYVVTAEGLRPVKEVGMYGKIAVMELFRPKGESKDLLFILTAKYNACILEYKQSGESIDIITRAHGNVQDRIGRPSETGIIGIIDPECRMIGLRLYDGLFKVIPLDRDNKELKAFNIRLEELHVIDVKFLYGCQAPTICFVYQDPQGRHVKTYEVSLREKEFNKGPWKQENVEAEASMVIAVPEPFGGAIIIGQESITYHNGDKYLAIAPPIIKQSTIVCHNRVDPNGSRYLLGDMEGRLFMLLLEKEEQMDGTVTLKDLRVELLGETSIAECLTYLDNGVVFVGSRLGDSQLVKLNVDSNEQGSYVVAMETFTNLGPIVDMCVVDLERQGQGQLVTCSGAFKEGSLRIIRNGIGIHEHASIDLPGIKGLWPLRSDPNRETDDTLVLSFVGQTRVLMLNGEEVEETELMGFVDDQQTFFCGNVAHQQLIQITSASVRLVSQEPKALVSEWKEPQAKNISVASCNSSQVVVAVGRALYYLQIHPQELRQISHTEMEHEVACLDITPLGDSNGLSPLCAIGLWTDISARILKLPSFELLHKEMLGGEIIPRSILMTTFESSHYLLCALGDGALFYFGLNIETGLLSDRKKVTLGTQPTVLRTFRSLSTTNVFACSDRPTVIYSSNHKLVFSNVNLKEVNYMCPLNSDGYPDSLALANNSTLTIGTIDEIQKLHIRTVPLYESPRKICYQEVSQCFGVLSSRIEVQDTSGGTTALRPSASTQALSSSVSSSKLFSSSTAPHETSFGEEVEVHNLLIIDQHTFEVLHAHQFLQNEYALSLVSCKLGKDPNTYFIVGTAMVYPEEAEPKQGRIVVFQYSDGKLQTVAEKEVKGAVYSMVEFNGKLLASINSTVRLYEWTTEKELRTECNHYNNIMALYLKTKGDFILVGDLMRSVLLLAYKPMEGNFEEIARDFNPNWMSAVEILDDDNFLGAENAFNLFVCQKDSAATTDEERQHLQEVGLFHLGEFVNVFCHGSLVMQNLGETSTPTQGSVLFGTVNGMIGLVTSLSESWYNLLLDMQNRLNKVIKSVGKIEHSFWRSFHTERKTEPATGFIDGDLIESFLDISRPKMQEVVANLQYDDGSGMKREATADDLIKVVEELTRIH
Full length wild-type cereblon CRBN, sequence (Q96SW2 whole entry): as the sequence (Q96SW2 whole entry) above

For `CCc1cc(NC(=O)OCc2ccc3c(c2)C(=O)N(C2CCC(=O)NC2=O)C3)cc(Cl)c1C` (stereo not drawn) [Compound 45], the IC50 in assay [1] (read-out: rFP IC50) is > 1700 nM. In addition, in assay [2] (setting [3]), the DC50 fell in the range of 30 to 300 nM.
Taken in the same sequence, the figures for `O=C1CCC(N2Cc3ccc(COC(=O)Nc4cnc(N5CCCCC5)cn4)cc3C2=O)C(=O)N1` (stereo not drawn) [Compound 94] were < 500 nM and 30 to 300 nM.
Consider `O=C1CCC(N2Cc3ccc(COC(=O)Nc4ccc(OC(F)(F)F)cc4F)cc3C2=O)C(=O)N1` (stereo not drawn) [Compound 148, (2-(2,6-dioxopiperidin-3-yl)-3-oxoisoindolin-5-yl)methyl(2-fluoro-4-(trifluoromethoxy)phenyl)carbamate], for which the IC50 in assay [1] (read-out: rFP IC50) is > 1700 nM. Besides, the DC50 in assay [2] (setting [3]) was > 300 nM.
Turning to `O=C1CCC(N2Cc3ccc(COC(=O)NCC4CC4)cc3C2=O)C(=O)N1` (stereo not drawn) [Compound 22], the IC50 in assay [1] (read-out: rFP IC50) was > 1700 nM. The DC50 in assay [2] (setting [3]) was > 300 nM.
Consider `Cc1cc(NC(=O)OCc2ccc3c(c2)C(=O)N(C2CCC(=O)NC2=O)C3)ccc1-c1ccccc1` (stereo not drawn) [Compound 137, (2-(2,6-dioxopiperidin-3-yl)-3-oxoisoindolin-5-yl)methyl(2-methyl-[1,1′-biphenyl]-4-yl)carbamate], for which the IC50 in assay [1] (read-out: rFP IC50) is > 1700 nM. For the same molecule, the DC50 in assay [2] (setting [3]) is < 30 nM; in assay [2] (setting [4]), ≤ 30 nM.
Take `Cc1c(Cl)cc(NC(=O)OCc2ccc3c(c2)C(=O)N(C2CCC(=O)NC2=O)C3)cc1CN1CC2CCC(C1)O2` (stereo not drawn) [Compound 21]: in assay [1] (read-out: rFP IC50), the IC50 is > 1700 nM. The DC50 in assay [2] (setting [3]) was < 30 nM; in assay [2] (setting [4]) it was ≤ 30 nM.
`O=C1CCC(N2Cc3ccc(COC(=O)Nc4cc(CN5CCOCC5)cc(OC(F)(F)F)c4)cc3C2=O)C(=O)N1` (stereo not drawn) [Compound 4]: the IC50 in assay [1] (read-out: IC50 value) was < 1100 nM. The DC50 in assay [2] (setting [3]) was < 30 nM; in assay [2] (setting [4]) it was ≤ 30 nM.
Take `O=C1CCC(N2Cc3ccc(COC(=O)Nc4ccc(N5CCOCC5)nc4)cc3C2=O)C(=O)N1` (stereo not drawn) [Compound 76]: the IC50 in assay [1] (read-out: IC50 value) was < 1100 nM. For the same molecule, the DC50 in assay [2] (setting [3]) lay in the range of 30 to 300 nM.
Consider `O=C1CCC(N2Cc3ccc(COC(=O)Nc4cc(Cl)cc(OC(F)F)c4)cc3C2=O)C(=O)N1` (stereo not drawn) [Compound 19], for which the IC50 in assay [1] (read-out: rFP IC50) is > 1700 nM. In addition, the DC50 in assay [2] (setting [3]) is 30 to 300 nM.
On the same counts, the results for `N#Cc1cc(Cl)cc(NC(=O)OCc2ccc3c(c2)C(=O)N(C2CCC(=O)NC2=O)C3)c1` (stereo not drawn) [Compound 111, (2-(2,6-dioxopiperidin-3-yl)-3-oxoisoindolin-5-yl)methyl (3-chloro-5-cyanophenyl)carbamate] are < 500 nM and 30 to 300 nM.
In the case of `C[C@@H]1CCCN1c1ccc(NC(=O)OCc2ccc3c(c2)C(=O)N(C2CCC(=O)NC2=O)C3)cn1` (stereo partly drawn) [Compound 157], the IC50 in assay [1] (read-out: rFP IC50) was < 500 nM. Further, the DC50 is < 30 nM in assay [2] (setting [3]) and ≤ 30 nM in assay [2] (setting [4]).
With `CC(OC(=O)Nc1cccc(OC(F)(F)F)c1)c1ccc2c(c1)C(=O)N(C1CCC(=O)NC1=O)C2` (stereo not drawn) [Compound 121, 1-(2-(2,6-dioxopiperidin-3-yl)-3-oxoisoindolin-5-yl)ethyl(3-(trifluoromethoxy)phenyl)carbamate], in assay [1] (read-out: rFP IC50), the IC50 is > 1700 nM. In assay [2] (setting [3]), the DC50 was > 300 nM.
Take `COc1cc(Cl)ccc1NC(=O)OCc1ccc2c(c1)C(=O)N(C1CCC(=O)NC1=O)C2` (stereo not drawn) [Compound 38]: the IC50 in assay [1] (read-out: IC50 value) is < 1100 nM. Further, the 50% degradation concentration (DC50) in assay [2] (setting [3]) was > 300 nM.
Take `Cc1c(F)cc(NC(=O)OCc2ccc3c(c2)C(=O)N(C2CCC(=O)NC2=O)C3)cc1CN1CCOCC1` (stereo not drawn) [Compound 41]: in assay [1] (read-out: IC50 value), the IC50 is < 1100 nM. In addition, the values for the DC50 in assay [2] (setting [3]) and in assay [2] (setting [4]) were < 30 nM and ≤ 30 nM, respectively.
Taken in the same sequence, the figures for `Cc1c(Cl)cc(NC(=O)OCc2ccc3c(c2)C(=O)N(C2CCC(=O)NC2=O)C3)cc1CN1CC2CC1CO2` (stereo not drawn) [Compound 13] were < 1100 nM, < 30 nM and ≤ 30 nM.
Take `O=C1CCC(N2Cc3ccc(COC(=O)Nc4ccc(OC(F)(F)F)cc4)cc3C2=O)C(=O)N1` (stereo not drawn) [Compound 154, (2-(2,6-dioxopiperidin-3-yl)-3-oxoisoindolin-5-yl)methyl (4-(trifluoromethoxy)phenyl)carbamate]: the IC50 in assay [1] (read-out: rFP IC50) is > 1700 nM. Also, the DC50 in assay [2] (setting [3]) lay within 30 to 300 nM.
On the same counts, the results for `Cc1cc(C#N)cc(NC(=O)OCc2ccc3c(c2)C(=O)N(C2CCC(=O)NC2=O)C3)c1` (stereo not drawn) [Compound 112, (2-(2,6-dioxopiperidin-3-yl)-3-oxoisoindolin-5-yl)methyl (3-cyano-5-methylphenyl)carbamate] are < 500 nM and 30 to 300 nM.
Consider `Cc1c(Cl)cc(NC(=O)OCc2ccc3c(c2)C(=O)N(C2CCC(=O)NC2=O)C3)cc1OCC1CCNC1` (stereo not drawn) [Compound 52], for which, in assay [1] (read-out: IC50 value), the IC50 is < 1100 nM. Besides, the DC50 in assay [2] (setting [3]) was > 300 nM.
`CC(C)CCNC(=O)OCc1ccc2c(c1)C(=O)N(C1CCC(=O)NC1=O)C2` (stereo not drawn) [Compound 27]: in assay [1] (read-out: rFP IC50), the IC50 was > 1700 nM. Besides, in assay [2] (setting [3]), the DC50 was > 300 nM.
Taken in the same sequence, the figures for `Cc1c(Cl)cc(NC(=O)OCc2ccc3c(c2)C(=O)N(C2CCC(=O)NC2=O)C3)cc1OCC1CCN(C)C1` (stereo not drawn) [Compound 70] were < 500 nM and 30 to 300 nM.
Consider `CN1CCN(c2ccc(NC(=O)OCc3ccc4c(c3)C(=O)N(C3CCC(=O)NC3=O)C4)cn2)CC1` (stereo not drawn) [Compound 82], for which, in assay [1] (read-out: rFP IC50), the IC50 was < 500 nM. Moreover, in assay [2] (setting [3]), the 50% degradation concentration (DC50) is > 300 nM.
Taken in the same sequence, the figures for `Cc1cc(NC(=O)OCc2ccc3c(c2)C(=O)N(C2CCC(=O)NC2=O)C3)cc(C)c1F` (stereo not drawn) [Compound 124, (2-(2,6-dioxopiperidin-3-yl)-3-oxoisoindolin-5-yl)methyl (4-fluoro-3,5-dimethylphenyl)carbamate] were < 500 nM and 30 to 300 nM.
With `Cc1cc(NC(=O)OCc2ccc3c(c2)C(=O)N(C2CCC(=O)NC2=O)C3)cnc1-c1ccccc1` (stereo not drawn) [Compound 88], in assay [1] (read-out: IC50 value), the IC50 is < 1100 nM. Moreover, the results for the DC50 in assay [2] (setting [3]) and in assay [2] (setting [4]) were < 30 nM and ≤ 30 nM, respectively.
With `O=C1CCC(N2Cc3ccc(COC(=O)Nc4ccc(N5CCC5)nc4)cc3C2=O)C(=O)N1` (stereo not drawn) [Compound 107], in assay [1] (read-out: rFP IC50), the IC50 is < 500 nM. Besides, the DC50 in assay [2] (setting [3]) is > 300 nM.
On the same counts, the results for `Cc1c(F)cc(NC(=O)OCc2ccc3c(c2)C(=O)N(C2CCC(=O)NC2=O)C3)cc1Cl` (stereo not drawn) [Compound 116] are > 1700 nM and 30 to 300 nM.
For the molecule `Cc1ccccc1-c1ccc(NC(=O)OCc2ccc3c(c2)C(=O)N(C2CCC(=O)NC2=O)C3)cn1` (stereo not drawn) [Compound 86], the IC50 in assay [1] (read-out: IC50 value) is < 1100 nM. Moreover, the DC50 is < 30 nM in assay [2] (setting [3]) and ≤ 30 nM in assay [2] (setting [4]).
With `O=C1CCC(N2Cc3ccc(COC(=O)Nc4cc(CN5CC6CC5CO6)cc(OC(F)F)c4)cc3C2=O)C(=O)N1` (stereo not drawn) [Compound 100], the half-maximal inhibitory concentration (IC50) in assay [1] (read-out: IC50 value) was < 1100 nM. In addition, the DC50 in assay [2] (setting [3]) lay within 30 to 300 nM.
On to `O=C1CCC(N2Cc3ccc(COC(=O)Nc4ccc(N5CCCCC5)nn4)cc3C2=O)C(=O)N1` (stereo not drawn) [Compound 75], for which the concentration for half-maximal inhibition (IC50) in assay [1] (read-out: rFP IC50) was < 500 nM. For the same molecule, the 50% degradation concentration (DC50) in assay [2] (setting [3]) lay in the range of 30 to 300 nM.
On the same counts, the results for `O=C1CCC(N2Cc3ccc(COC(=O)Nc4ccc(C5CC5)nc4)cc3C2=O)C(=O)N1` (stereo not drawn) [Compound 80] are < 500 nM and 30 to 300 nM.

By IC50 is commonly meant the concentration that gives 50% inhibition. Usually DC50 stands for the concentration at which degradation of the target reaches its halfway point.
